Experimental data taken from patent US12161722B2, “Bifunctional heterocyclic compound having BTK degradation function via ubiquitin proteasome pathway, and use thereof” (KOREA RESEARCH INSTITUTE OF CHEMICAL TECHNOLOGY, priority 2021, dated 2024).

Target: T1, WT BTK protein (Homo sapiens, UniProt Q06187)
T1 construct: measured for intracellular BTK protein levels by Western blotting; endogenous in cells; host or cells: TMD-8 or RAMOS cells
Test: BTK protein degradation assay (Western blotting), WT BTK
Assay type: cell-based
Conditions: concentration range accounting for 50% degradation of WT BTK protein, TMD-8 or RAMOS cells, 24 hours
Summary of the method: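 TMD-8 cells (1×10^6 cells/mL) treated 24 h with compound serial dilutions, then lysed in RIPA. Equal protein loads analysed by Western blot for BTK with GAPDH/β-actin as loading controls; activity binned by concentration giving 50% WT BTK degradation.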

T1 sequence (Q06187 whole entry): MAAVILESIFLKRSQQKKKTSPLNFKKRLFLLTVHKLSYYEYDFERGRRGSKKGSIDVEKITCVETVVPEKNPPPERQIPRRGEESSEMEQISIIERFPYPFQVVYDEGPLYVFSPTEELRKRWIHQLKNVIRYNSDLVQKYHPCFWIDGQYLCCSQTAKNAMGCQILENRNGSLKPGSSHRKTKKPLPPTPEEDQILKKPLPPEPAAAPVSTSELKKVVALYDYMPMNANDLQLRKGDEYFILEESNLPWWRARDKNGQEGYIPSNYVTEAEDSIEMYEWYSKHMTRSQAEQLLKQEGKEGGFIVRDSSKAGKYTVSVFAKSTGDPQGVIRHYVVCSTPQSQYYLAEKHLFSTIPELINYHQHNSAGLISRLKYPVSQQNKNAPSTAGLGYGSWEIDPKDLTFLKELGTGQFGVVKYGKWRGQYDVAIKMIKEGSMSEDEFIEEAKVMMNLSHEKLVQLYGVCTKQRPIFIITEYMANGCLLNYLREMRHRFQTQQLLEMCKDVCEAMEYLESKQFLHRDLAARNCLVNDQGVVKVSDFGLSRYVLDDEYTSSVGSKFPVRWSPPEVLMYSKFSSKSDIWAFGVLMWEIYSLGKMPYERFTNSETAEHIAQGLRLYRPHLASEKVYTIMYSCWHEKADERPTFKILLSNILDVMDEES

SMILES	DC50 [nM]
Cc1cccc(C)c1Nc1nn(C)c2nc(Nc3ccc4c(c3)CN(CC(=O)N3CCN(c5ccc6c(c5)CN(C5CCC(=O)NC5=O)C6=O)CC3)CC4)ncc12 (centres unmarked) [Compound 103, 3-(5-(4-(2-(7-((3-((2,6-dimethylphenyl)amino)-1-methyl-1H-pyrazolo[3,4-d]pyrimidin-6-yl)amino)-3,4-dihydroisoquinolin-2 (1H)-yl)acetyl)piperazin-1-yl)-1-oxoisoindolin-2-yl)piperidin-2,6-one]	10 to 1000
Cc1cccc(C)c1Nc1nn(C)c2nc(Nc3ccc4c(c3)CN(CC(=O)N3CCC(Oc5ccc6c(c5)CN(C5CCC(=O)NC5=O)C6=O)CC3)CC4)ncc12 (centres unmarked) [Compound 106, 3-(5-((1-(2-(7-((3-((2,6-dimethylphenyl)amino)-1-methyl-1H-pyrazolo[3,4-d]pyrimidin-6-yl)amino)-3,4-dihydroisoquinolin-2 (1H)-yl)acetyl)piperidin-4-yl)oxy)-1-oxoisoindolin-2-yl)piperidin-2,6-one]	10 to 1000
Cc1cccc(C)c1Nc1nn(C)c2nc(Nc3ccc4c(c3)CCN(CC3CCN(c5ccc6c(c5)C(=O)N(C5CCC(=O)NC5=O)C6=O)CC3)C4)ncc12 (centres unmarked) [Compound 109, 5-(4-((6-((3-((2,6-Dimethylphenyl)amino)-1-methyl-1H-pyrazolo[3,4-d]pyrimidin-6-yl)amino)-3,4-dihydroisoquinolin-2 (1H)-yl)methyl)piperidin-1-yl)-2-(2,6-dioxopiperidin-3-yl)isoindoline-1,3-dione]	10 to 1000
COc1ccc(C(=O)N2CCC(CC(=O)N3CCc4cc(Nc5ncc6c(Nc7c(C)cccc7C)nn(C)c6n5)ccc4C3)CC2)cc1N1CCC(=O)NC1=O [Compound 111, 1-(5-(4-(2-(6-((3-((2,6-Dimethylphenyl)amino)-1-methyl-1H-pyrazolo[3,4-d]pyrimidin-6-yl)amino)-3,4-dihydroisoquinolin-2 (1H)-yl)-2-oxoethyl)piperidine-1-carbonyl)-2-methoxyphenyl)dihydropyrimidine-2,4 (1H,3H)-dione]	10 to 1000
COc1ccc(C(=O)N2CCC(CC(=O)N3CCc4ccc(Nc5ncc6c(Nc7c(C)cccc7C)nn(C)c6n5)cc4C3)CC2)cc1N1CCC(=O)NC1=O [Compound 112, 1-(5-(4-(2-(7-((3-((2,6-Dimethylphenyl)amino)-1-methyl-1H-pyrazolo[3,4-d]pyrimidin-6-yl)amino)-3,4-dihydroisoquinolin-2 (1H)-yl)-2-oxoethyl)piperidine-1-carbonyl)-2-methoxyphenyl)dihydropyrimidine-2,4 (1H,3H)-dione]	1000 to 10000
Cc1cccc(C)c1Nc1nn(C)c2nc(Nc3ccc4c(c3)CN(CC(=O)N3CCC(Oc5ccc6c(c5)C(=O)N(C5CCC(=O)NC5=O)C6)CC3)CC4)ncc12 (centres unmarked) [Compound 116, 3-(6-((1-(2-(7-((3-((2,6-dimethylphenyl)amino)-1-methyl-1H-pyrazolo[3,4-d]pyrimidin-6-yl)amino)-3,4-dihydroisoquinolin-2 (1H)-yl)acetyl)piperidin-4-yl)oxy)-1-oxoisoindolin-2-yl)piperidin-2,6-one]	1000 to 10000
Cc1cccc(C)c1Nc1nn(C)c2nc(Nc3ccc4c(c3)CN(C(=O)CN3CCC(Oc5ccc6c(c5)C(=O)N(C5CCC(=O)NC5=O)C6)CC3)CC4)ncc12 (centres unmarked) [Compound 117, 3-(6-((1-(2-(7-((3-((2,6-dimethylphenyl)amino)-1-methyl-TH-pyrazolo[3,4-d]pyrimidin-6-yl)amino)-3,4-dihydroisoquinolin-2 (1H)-yl)-2-oxoethyl)piperidin-4-yl)oxy)-1-oxoisoindolin-2-yl)piperidin-2,6-one]	1000 to 10000
COc1ccc(Nc2nn(C)c3nc(Nc4ccc5c(c4)CN(CC4CCN(c6ccc7c(c6)C(=O)N(C6CCC(=O)NC6=O)C7=O)CC4)CC5)ncc23)c(C)c1 (centres unmarked) [Compound 118, 2-(2,6-Dioxopiperidin-3-yl)-5-(4-((7-((3-((4-methoxy-2-methylphenyl)amino)-1-methyl-1H-pyrazolo[3,4-d]pyrimidin-6-yl)amino)-3,4-dihydroisoquinolin-2 (1H)-yl)methyl)piperidin-1-yl)isoindoline-1,3-dione]	1000 to 10000
Cc1cc(F)ccc1Nc1nn(C)c2nc(Nc3ccc4c(c3)CN(CC3CCN(c5ccc6c(c5)C(=O)N(C5CCC(=O)NC5=O)C6=O)CC3)CC4)ncc12 (centres unmarked) [Compound 121, 2-(2,6-Dioxopiperidin-3-yl)-5-(4-((7-((3-((4-fluoro-2-methylphenyl)amino)-1-methyl-1H-pyrazolo[3,4-d]pyrimidin-6-yl)amino)-3,4-dihydroisoquinolin-2 (1H)-yl)methyl)piperidin-1-yl)isoindoline-1,3-dione]	10 to 1000
Cc1cc(NC(=O)c2cccc(C(F)(F)F)c2)ccc1Nc1nn(C)c2nc(Nc3ccc4c(c3)CN(CC3CCN(c5ccc6c(c5)C(=O)N(C5CCC(=O)NC5=O)C6=O)CC3)CC4)ncc12 (centres unmarked) [Compound 122, N-(4-((6-((2-((1-(2-(2,6-Dioxopiperidin-3-yl)-1,3-dioxoisoindolin-5-yl)piperidin-4-yl)methyl)-1,2,3,4-tetrahydroisoquinolin-7-yl)amino)-1-methyl-1H-pyrazolo[3,4-d]pyrimidin-3-yl)amino)-3-methylphenyl)-3-(trifluoromethyl)benzamide]	10 to 1000
Cc1cccc(C)c1Nc1nn(C)c2nc(Nc3ccc4c(c3)CN(CCNc3ccc5c(c3)C(=O)N(C3CCC(=O)NC3=O)C5=O)CC4)ncc12 (centres unmarked) [Compound 123, 5-((2-(7-((3-((2,6-Dimethylphenyl)amino)-1-methyl-1H-pyrazolo[3,4-d]pyrimidin-6-yl)amino)-3,4-dihydroisoquinolin-2 (1H)-yl)ethyl)amino)-2-(2,6-dioxopiperidin-3-yl)isoindoline-1,3-dione]	10 to 1000

The next lines start with the values.

DC50 [nM]	SMILES
0.1 to 10	Cc1cccc(C)c1Nc1nn(C)c2nc(Nc3ccc(CCNC(=O)C4CCN(c5ccc6c(c5)C(=O)N(C5CCC(=O)NC5=O)C6=O)CC4)cc3)ncc12 (centres unmarked) [Compound 100, N-(4-((3-((2,6-dimethylphenyl)amino)-1-methyl-1H-pyrazolo[3,4-d]pyrimidin-6-yl)amino)phenethyl)-1-(2-(2,6-dioxopiperidin-3-yl)-1,3-dioxoisoindolin-5-yl)piperidine-4-carboxamide]
10 to 1000	Cc1cccc(C)c1Nc1nn(C)c2nc(Nc3ccc(CCNC(=O)C4CCN(CC(=O)Nc5ccc6c(c5)C(=O)N(C5CCC(=O)NC5=O)C6=O)CC4)cc3)ncc12 (centres unmarked) [Compound 101, N-(4-((3-((2,6-dimethylphenyl)amino)-1-methyl-1H-pyrazolo[3,4-d]pyrimidin-6-yl)amino)phenethyl)-1-(2-((2-(2,6-dioxopiperidin-3-yl)-1,3-dioxoisoindolin-5-yl)amino)-2-oxoethyl)piperidine-4-carboxamide]
10 to 1000	Cc1cccc(C)c1Nc1nn(C)c2nc(Nc3ccc(CCNC(=O)C4CCN(C(=O)Nc5ccc6c(c5)CN(C5CCC(=O)NC5=O)C6=O)CC4)cc3)ncc12 (centres unmarked) [Compound 102, N4-(4-((3-((2,6-Dimethylphenyl)amino)-1-methyl-1H-pyrazolo[3,4-d]pyrimidin-6-yl)amino)phenethyl)-N1-(2-(2,6-dioxopiperidin-3-yl)-1-oxoisoindolin-5-yl)piperidine-1,4-dicarboxamide]
0.1 to 10	Cc1cccc(C)c1Nc1nn(C)c2nc(Nc3ccc4c(c3)CN(C(=O)CN3CCN(c5ccc6c(c5)CN(C5CCC(=O)NC5=O)C6=O)CC3)CC4)ncc12 (centres unmarked) [Compound 104, 3-(5-(4-(2-(7-((3-((2,6-Dimethylphenyl)amino)-1-methyl-1H-pyrazolo[3,4-d]pyrimidin-6-yl)amino)-3,4-dihydroisoquinolin-2 (1H)-yl)-2-oxoethyl)piperazin-1-yl)-1-oxoisoindolin-2-yl)piperidin-2,6-one]
0.1 to 10	Cc1cccc(C)c1Nc1nn(C)c2nc(Nc3ccc4c(c3)CN(C(=O)COc3ccc5c(c3)CN(C3CCC(=O)NC3=O)C5=O)CC4)ncc12 (centres unmarked) [Compound 105, 3-(5-(2-(7-((3-((2,6-Dimethylphenyl)amino)-1-methyl-1H-pyrazolo[3,4-d]pyrimidin-6-yl)amino)-3,4-dihydroisoquinolin-2 (1H)-yl)-2-oxoethoxy)-1-oxoisoindolin-2-yl)piperidin-2,6-one]
0.1 to 10	Cc1cccc(C)c1Nc1nn(C)c2nc(Nc3ccc4c(c3)CN(CC3CCN(c5ccc6c(c5)C(=O)N(C5CCC(=O)N(COC(=O)C(C)(C)C)C5=O)C6=O)CC3)CC4)ncc12 (centres unmarked) [Compound 107, (3-(5-(4-((7-((3-((2,6-dimethylphenyl)amino)-1-methyl-1H-pyrazolo[3,4-d]pyrimidin-6-yl)amino)-3,4-dihydroisoquinolin-2 (1H)-yl)methyl)piperidin-1-yl)-1,3-dioxoisoindolin-2-yl)-2,6-dioxopiperidin-1-yl)methyl pivalate]
0.1 to 10	Cc1cccc(C)c1Nc1nn(C)c2nc(Nc3ccc4c(c3)CN(CC(=O)Nc3ccc5c(c3)CN(C3CCC(=O)NC3=O)C5=O)CC4)ncc12 (centres unmarked) [Compound 108, 2-(7-((3-((2,6-Dimethylphenyl)amino)-1-methyl-1H-pyrazolo[3,4-d]pyrimidin-6-yl)amino)-3,4-dihydroisoquinolin-2 (1H)-yl)-N-(2-(2,6-dioxopiperidin-3-yl)-1-oxoisoindolin-5-yl)acetamide]
0.1 to 10	Cc1cccc(C)c1Nc1nn(C)c2nc(Nc3ccc4c(c3)CCN(CC3CCN(C(=O)CNc5ccc6c(c5)C(=O)N(C5CCC(=O)NC5=O)C6=O)CC3)C4)ncc12 (centres unmarked) [Compound 110, 5-((2-(4-((6-((3-((2,6-Dimethylphenyl)amino)-1-methyl-1H-pyrazolo[3,4-d]pyrimidin-6-yl)amino)-3,4-dihydroisoquinolin-2 (1H)-yl)methyl)piperidin-1-yl)-2-oxoethyl)amino)-2-(2,6-dioxopiperidin-3-yl)isoindoline-1,3-dione]
0.1 to 10	Cc1cccc(C)c1Nc1nn(C)c2nc(Nc3ccc4c(c3)CN(C(=O)C3CC5(CCN(c6ccc7c(c6)C(=O)N(C6CCC(=O)NC6=O)C7=O)CC5)C3)CC4)ncc12 (centres unmarked) [Compound 124, 5-(2-(7-((3-((2,6-dimethylphenyl)amino)-1-methyl-1H-pyrazolo[3,4-d]pyrimidin-6-yl)amino)-1,2,3,4-tetrahydroisoquinoline-2-carbonyl)-7-azaspiro[3.5]nonan-7-yl)-2-(2,6-dioxopiperidin-3-yl)isoindoline-1,3-dione]
